Paper PMC10433847, “The Plasmodium Lactate/H^+ Transporter PfFNT Is Essential and Druggable In Vivo” (Antimicrobial Agents and Chemotherapy, 2023)

Target: T1, PfFNT V196L (Plasmodium falciparum, UniProt O77389, V196L)
T1 sequence (O77389 1-309 V196L): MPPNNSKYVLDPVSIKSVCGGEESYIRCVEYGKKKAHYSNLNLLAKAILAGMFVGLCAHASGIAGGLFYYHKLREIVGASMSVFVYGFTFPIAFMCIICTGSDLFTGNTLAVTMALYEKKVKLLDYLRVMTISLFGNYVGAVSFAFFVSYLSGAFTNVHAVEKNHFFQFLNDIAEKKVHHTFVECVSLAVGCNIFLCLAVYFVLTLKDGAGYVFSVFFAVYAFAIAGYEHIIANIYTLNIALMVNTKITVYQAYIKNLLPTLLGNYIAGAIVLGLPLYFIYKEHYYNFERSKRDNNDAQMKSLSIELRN
Assay type: cell-based
Settings: pH 6.8; read-out: IC50, inhibition of 14C-lactate transport

O=C(/C=C(\O)C(F)(F)C(F)(F)F)c1cccnc1 [BH267.meta]
IC50: 850 ± 50 nM

COc1ccc2c(c1)OC(O)(C(F)(F)C(F)(F)F)CC2=O (centres unmarked) [MMV007839]
IC50: 730 ± 70 nM
